The source of these data is a melting point compilation (Tetko et al.; mined from patent text by program, amines drawn as free bases though some values may be those of a salt).

Usually melting point stands for the temperature of the solid-liquid transition.

In turn, `CC=Nc1cc(CO)cc(Nc2c3ccccc3nc3ccccc23)c1` yielded a melting point of 158 to 161 °C.
Next, `CCCC1(CCC)CCCc2c(Nc3ccc(Cl)cc3Cl)nc(C)nc21`: 238 to 244 °C; `Cc1nnc(S(=O)(=O)C(Br)(Br)Br)s1`: 169 to 173 °C.
For the compound `CC(C)(C)P(=O)(O)OCCCN`, the melting point is 253 to 255 °C.
Next, `COc1ccc(C(=O)c2cc(Cl)ccc2NS(=O)(=O)c2ccc(C)cc2)c(O)c1OC`: 185 to 187 °C; `CCCC(c1ccccc1)c1ccc(-c2cnn3c(O)ncnc23)cc1` (centres undefined): 280 to 285 °C.
The figure for `CC(=O)c1ccc(NC(=O)c2ccc(C=O)cc2)cc1` is 174 °C; for `C[C@H]([C@@H](C)P(=S)(c1ccccc1)c1ccccc1)P(=S)(c1ccccc1)c1ccccc1` it is 213 to 214 °C; for `CC(C)(C)OCCCC1(O)c2ccccc2COc2ccccc21` (centres undefined) it is 113 to 115 °C.
Next, `Cc1ccc(S(=O)(=O)OCC2Cc3cccc(Nc4ccc(Cl)cc4)c3O2)cc1` (centres undefined): 132 to 134 °C; `Fc1ccc(Oc2ccnc3c(Cl)cccc23)c(Cl)c1`: 99 to 101 °C.
For `OCCN1CCN(c2ccc3nc(-c4ccc(Cl)s4)c(-c4ccncc4)n3n2)CC1`, the melting point lay within 216 to 218 °C.
The figure for `CC(C)c1cc(C(=O)Nc2ccc(C(=O)O)nc2)sc1C(C)C` is 216 to 217 °C; for `CC(C)(C)OC(=O)N1CCC[C@H]1COc1cccc2[nH]ccc12` it is 40 to 41 °C.
In turn, `CNC(=O)Oc1ccc(NC(=O)C(Cl)Cl)c(C)c1` had a melting point of 199 to 201 °C.
`O=C(Nc1cccc(C2CN3CCSC3=N2)c1)c1ccc(Cl)nc1` (centres undefined) returned a melting point of 135 to 138 °C.
The figure for `CCC/C(=C\C=C\C(=O)O)c1ccc(OC)cc1` is 151 to 152 °C; for `O=C1C=CC(=O)c2c1cccc2[N+](=O)[O-]` it is 161 °C; for `CCCN(CCC(=O)Nc1c(SC)nc(C)nc1N(CC)CC)c1ccccc1` it is 147 to 149 °C.
With `CCN(CC)C(=O)c1ccc(C(c2ccccc2)C2CCNCC2)cc1` (centres undefined), the melting point was in the range of 160 to 162 °C.
The figure for `OC(=S)c1cc(C(F)(F)F)ccc1O` is 122 to 125 °C; for `O=C(O)c1cccc(-c2cccc(CC(=O)N(Cc3ccccc3)C3c4ccccc4CCC3Cc3ccccc3)c2)c1` (centres undefined) it is 171 to 172 °C.
Next, `CN(C(=O)Nc1ccc2ccccc2c1)c1cccc(-c2ccc(CC(Nc3ccccc3C(=O)c3ccccc3)C(=O)O)cc2)c1` (centres undefined): 125 °C; `CN(C)Cc1cc(Nc2nncc3ccccc23)cc(CN(C)C)c1O`: 195 °C.
The figure for `CN(C(=O)C1CC1)c1cccc(-c2ccnc3c(C(=O)c4ccco4)cnn23)c1` is 207 to 209 °C; for `CNC(=O)Cc1ccc(N)c(N)c1` it is 136 to 138 °C; for `O=C(NC1C(=O)N(CCCO)c2ccccc2N(c2ccccc2)C1=O)Oc1ccccc1` (centres undefined) it is 203 to 204 °C.
In turn, `O=C1c2ccccc2C(=O)N1COc1ccncc1` showed a melting point of 129 to 131 °C.
The figure for `CC(C)c1nn(-c2ccccn2)c(-c2ccc(F)cc2)c1/C=C/C=O` is 105 to 107 °C; for `CN(C)c1nc2cc(NC(=O)c3c(C(=O)N4CCCC4)cnn3C)ccn2n1` it is 199 to 201 °C.
The figure for `O=C(NCC1(c2ccccc2)CCCCC1)Nc1ccc(Cl)c(Cl)c1` is 180 to 181 °C.
Next, `CC(=O)c1cc(F)ccc1Oc1nc2ccc([N+](=O)[O-])cc2cc1Cc1ccccc1`: 132 to 133 °C; `CC(C)N(C(=O)n1nc(Oc2ccc(C(F)(F)F)cc2[N+](=O)[O-])cc1C(F)(F)F)C(C)C`: 118 to 120 °C; `CCOC(=O)c1c(CCl)nc2sc(C)c(C)c2c1-c1ccc(OC)c(OC)c1`: 162 to 163 °C.
In turn, `O=C(O)c1ccc(OCCCOc2ccccc2)cc1C(=O)O` had a melting point of 155 to 159 °C.
Next, `CCOC(=O)/C(=C\Nc1ccc(OC)c(OC)c1)c1ccc(OC)cc1`: 88 to 89 °C.
Next, `CC(C)(C)C1=C(CO)N=NC1=O`: 169 to 172 °C; `COc1cc2[nH]c(S)nc2cc1C`: above 310 °C.
The figure for `CCCOc1ccccc1-c1nc2cc3c(cc2c(=O)[nH]1)NCN3Cc1ccc(OC)cc1` is 130 to 131 °C; for `N#Cc1cnc2c(sc3ccccc32)c1Nc1cccc(Br)c1` it is 240 to 242 °C.
`CC(C)OC(=O)c1cc(-n2c(=O)[nH]c3c(c2=O)CCC3)c(F)cc1Cl` showed a melting point of 204 to 207 °C.
Next, `N#CCCNC(=O)C1=CC(CF)(CF)Oc2cc(Cl)c(Cl)cc21`: 135 to 136 °C; `CC(=O)NC(=Cc1ccccc1)C1=NC(=Cc2ccc(F)cc2)C(=O)O1`: 172 °C.
Next, `CC(C)(C)[Si](OCC1OC(n2ccc(N)nc2=S)C(O)(CC[Si](C)(C)C)C1O)(c1ccccc1)c1ccccc1` (centres undefined): 126 °C; `CC(=O)N1CCN=C1Nc1cc(C)nn1-c1ccc(F)cc1`: 189 to 191 °C.
Next, `COC(=O)c1cc2ccnc(N)c2[nH]1`: above 300 °C; `Cc1cc(-c2ccc(Cl)cc2)cnc1N=CN(C)C`: 99 °C; `O=C(O)COc1cccc2c1CCc1sc(SC(c3ccccc3F)c3ccccc3F)nc1-2`: 194 to 196 °C.
For the compound `COc1ccc(C2(O)OC(=O)C(c3ccc4nsnc4c3)=C2Cc2ccccc2)cc1` (centres undefined), the melting point was in the range of 40 to 41 °C.
The figure for `Cn1cc(C2=C(c3cccc(N4CCC(O)CC4)c3)C(=O)NC2=O)c2ccccc21` is 136 to 141 °C; for `N#CCCCc1ccc2ccccc2c1O` it is 76 to 78 °C.
Next, `CC(=O)[NH+]([O-])C[C@@H]1CN(c2ccc(N3CCN(S(=O)(=O)c4ccccc4C#N)CC3)c(F)c2)C(=O)O1` (some centres undefined): 190 to 192 °C; `CN(C)S(=O)(=O)c1ccc(-c2ccc(N)cc2)cc1`: 178 to 180 °C.
Next, `CCCCCC(=O)c1c(O)oc(=O)c(C(=O)CCCCC)c1O`: 87 to 88 °C; `CC1(C)CCC(C)(C)c2cc(C=O)c(F)cc21`: 119 to 120 °C.
`N#Cc1c(Br)c(C(F)(F)F)n(CBr)c1-c1ccc(Cl)cc1` came in with a melting point of 131 to 132 °C.
The compound `CCOC(=O)c1cccc(-c2nc(-c3ccc(OCC)cc3)cs2)c1` yielded a melting point of 108 to 110 °C.
Next, `COC(=O)C12CCc3ccccc3C1=NN(C(=O)Nc1ccc(C(F)(F)F)cc1)C2` (centres undefined): 177 to 180 °C.
Next, `Cc1noc(C2CC2)c1I`: 71 °C; `COc1ccc(N2CCOCC2)c2sc(-c3ncc(-c4sc5ccccc5c4C)[nH]3)nc12`: 213 to 215 °C.
Compound `CNC(=S)Nc1c(C)cccc1N1CCOCC1` displayed a melting point of 182 to 183 °C.
The figure for `CN(Cc1cc(-c2ccc(CC3SC(=O)NC3=O)cc2)cs1)C(=O)c1ccccc1` (centres undefined) is 134 °C; for `Cc1ccc(C23CCC(Cl)(CC2)CC3)cc1` it is 105 °C; for `CC1(C)CCC(=O)Nc2ccc([N+](=O)[O-])cc21` it is 208 °C.
